# Literature values, collected in patent US10195128B2, “Oral care compositions” (Colgate-Palmolive Company, priority 2016, dated 2019).
# Conditions: oral or intraperitoneal administration; after consumption
smiles,measurement,value
"COc1cc(CCC(C)=O)ccc1O [zingerone, 4-(3-methoxy-4-hydroxyphenyl)-butan-2-one]",Time to excretion of glucuronide compounds and sulphate conjugates in urine,≤ 24 h
